These results are taken from article PMC11480993, “Combining Data-Driven and Structure-Based Approaches in Designing Dual PARP1-BRD4 Inhibitors for Breast Cancer Treatment” (Journal of Chemical Information and Modeling, 2024).

Data set [1] deals with PARP1. Also noted: method as in PMID 34813314, PMID 35091172, PMID 33532187, PMID 35442700, PMID 24481311. The following applies: known dual PARP1-BRD4 inhibitors ref 15-19; cited from earlier work.
In data set [2] the test system is BRD4. The following applies: cited from earlier work.
Another data set concerns MDA-MB-231. Details: method as in PMID 34813314, PMID 35091172, PMID 33532187, PMID 35442700, PMID 24481311. The following applies: 3 days; breast cancer ref 15-19; cited from earlier work.
The subject of the next data set is MDA-MB-468. Also noted: method as in PMID 34813314, PMID 35091172, PMID 33532187, PMID 35442700, PMID 24481311. The following applies: 3 days; breast cancer ref 15-19; cited from earlier work.
Data set [3] deals with PARP1 (Homo sapiens, UniProt P09874). Description: In vitro PARP1 enzymatic activity (ELISA, biotinylated NAD+, luminescence). The data set is classed as biochemical. How it is done:
The inhibition of the tested compounds on PARP1 enzymatic activity was determined by ELISA in 96-well plates. Each well was precoated with histone (20 μg/mL) diluted in 100 μL of PBS buffer (10 mM NaH2PO4, 100 mM Na2HPO4, 150 mM NaCl, pH 7.4) by incubation at 4 °C overnight. […] The reaction was initiated by the addition of 20 μL of PARP1 (50 ng/well) at 30 °C for 1 h. Then the reaction solution was added to 50 μL of streptavidin conjugated HRP. The assay was performed at 30 °C for an additional 30 min. Finally, 100 μL of solution (H2O2 and luminol in citrate buffer 0.1 M, pH 5.4) was added and luminescent signal was measured using a multiwell spectrophotometer (Molecular Devices SpectraMax M5 microplate reader).
(In general: In an ELISA, binding on a coated surface is turned into a signal by an enzyme label.)

Data set [4] deals with BRD4 (Homo sapiens, UniProt O60885). As to the kind of experiment: BRD TR-FRET assay, BRD4. The data set is classed as binding. How it is done: The assay was performed by TR-FRET technology using a BRD and its corresponding ligand (BET). The TR-FRET signal from the assay is correlated with the amount of ligand binding to the bromodomain. All of the binding reactions were conducted at room temperature. The 20 μL reaction mixture in Assay Buffer contains either bromodomains, BET Ligand, and the indicated amount of inhibitor. For the negative control (blank), 5 μL of the assay buffer was added instead of the BET ligand. The reaction mixture was incubated for 120 min. After the incubation with the ligand, the TR-FRET signal was measured using a Tecan Infinite M1000 plate reader.
On the technique in general: In TR-FRET formats the signal depends on donor and acceptor labels being close together.

A further data set has as its system MCF-7 cells. Description: Cell viability (MTT), MCF-7. The class given is cell-based. The following applies: Homo sapiens, MCF7, 96 h; 4-day treatment, wild-type BRCA. How it is done: (§1) MDA-MB-231, MDA-MB-436, and MCF-7 cells were seeded into 96-well plates with the number of 5 × 10^3 in each cell and allowed to incubate for 24 h. Subsequently, various concentrations of the test compounds (ranging from 100 to 0.78 μM with twice gradient dilution) were introduced. After 4 days of incubation, MTT solution was applied, and the cells were incubated for an additional 4 h. Following the removal of the supernatant, the violet crystals were dissolved in 200 μL of DMSO, and the absorbance was measured at 570 nm.

In another data set the test system is MDA-MB-231 cells. Description: Cell viability (MTT), MDA-MB-231. The data set is classed as cell-based. The following applies: Homo sapiens, MDA-MB-231, 96 h; 4-day treatment, wild-type BRCA. The procedure:
as §1

A short description of data set [5]: Solubility observed during activity testing. The data set is classed as physicochemical. The following applies: compared with HF2. The procedure:
The inhibitory effects of both enzymes were measured for HF1 and HF2. […] The large discrepancy in BRD4 activities could be attributed to the nonplanar scaffold of HF1, which appears to fit more effectively into the hydrophobic environment formed by Val87, Phe83, and Ile146 (Figure 5B, right). […] Before proceeding further, we made the decision to examine PJ34, a potent and nonselective PARP1 inhibitor,[13] to assess its impact on BRD4 inhibition. […] Given the strong PARP1 activity and relatively low micromolar BRD4 activity of PJ34 relative to HF1 and HF2, we contemplated whether substituting PJ34’s scaffold with that of HF1 could synergistically enhance BRD4 affinity while maintaining strong PARP1 affinity.

The subject of another data set is SW1990 cell. Details: method as in PMID 34813314, PMID 35091172, PMID 33532187, PMID 35442700, PMID 24481311. The following applies: 4 days; pancreatic cancer ref 15-19; cited from earlier work.
The next data set concerns CFPAC-1 cell. Details: method as in PMID 34813314, PMID 35091172, PMID 33532187, PMID 35442700, PMID 24481311. The following applies: 4 days; pancreatic cancer ref 15-19; cited from earlier work.
For another data set, the system named is Capan-1 cell. Details: method as in PMID 34813314, PMID 35091172, PMID 33532187, PMID 35442700, PMID 24481311. The following applies: 4 days; pancreatic cancer ref 15-19; cited from earlier work.
For another data set, the system named is MDA-MB-436 cells. As to the kind of experiment: Cell viability (MTT), MDA-MB-436. The following applies: Homo sapiens, MDA-MB-436, 96 h; 4-day treatment, BRCA mutant. The data set is classed as cell-based. How it is done:
as §1

Data set [6] concerns BRD4. Description: Western blot, BRD4 expression in MCF-7 cells. The following applies: MCF-7, 48 h treatment. The data set is classed as cell-based. How it is done:
(§2) Following a 48 h treatment, cellular proteins were extracted using RIPA cell lysis buffer containing protease and phosphatase inhibitor cocktail. The protein concentration was assessed by using a BCA assay. Subsequently, equal amounts of these proteins were loaded onto an SDS-PAGE gel and transferred onto a PVDF membrane. The protein-loaded membrane was then blocked using a commercial blocking solution (Beyotime, China) and sequentially incubated with primary and secondary antibodies. Protein bands were visualized using an ECL chemiluminescence kit and quantified using ImageJ software.

The test system of data set [7] is PARP1. Description: Western blot, PARP1 expression in MCF-7 cells. The class given is cell-based. The following applies: MCF-7, 48 h treatment. How it is done:
as §2
For orientation: A western blot detects proteins with antibodies after separation by electrophoresis.

[8] abbreviates: known dual PARP1-BRD4 inhibitors ref 15-19.

Read-outs that look alike come from different tables or passages of the source.

Sequence of PARP1 (Homo sapiens, UniProt P09874) (P09874 whole entry): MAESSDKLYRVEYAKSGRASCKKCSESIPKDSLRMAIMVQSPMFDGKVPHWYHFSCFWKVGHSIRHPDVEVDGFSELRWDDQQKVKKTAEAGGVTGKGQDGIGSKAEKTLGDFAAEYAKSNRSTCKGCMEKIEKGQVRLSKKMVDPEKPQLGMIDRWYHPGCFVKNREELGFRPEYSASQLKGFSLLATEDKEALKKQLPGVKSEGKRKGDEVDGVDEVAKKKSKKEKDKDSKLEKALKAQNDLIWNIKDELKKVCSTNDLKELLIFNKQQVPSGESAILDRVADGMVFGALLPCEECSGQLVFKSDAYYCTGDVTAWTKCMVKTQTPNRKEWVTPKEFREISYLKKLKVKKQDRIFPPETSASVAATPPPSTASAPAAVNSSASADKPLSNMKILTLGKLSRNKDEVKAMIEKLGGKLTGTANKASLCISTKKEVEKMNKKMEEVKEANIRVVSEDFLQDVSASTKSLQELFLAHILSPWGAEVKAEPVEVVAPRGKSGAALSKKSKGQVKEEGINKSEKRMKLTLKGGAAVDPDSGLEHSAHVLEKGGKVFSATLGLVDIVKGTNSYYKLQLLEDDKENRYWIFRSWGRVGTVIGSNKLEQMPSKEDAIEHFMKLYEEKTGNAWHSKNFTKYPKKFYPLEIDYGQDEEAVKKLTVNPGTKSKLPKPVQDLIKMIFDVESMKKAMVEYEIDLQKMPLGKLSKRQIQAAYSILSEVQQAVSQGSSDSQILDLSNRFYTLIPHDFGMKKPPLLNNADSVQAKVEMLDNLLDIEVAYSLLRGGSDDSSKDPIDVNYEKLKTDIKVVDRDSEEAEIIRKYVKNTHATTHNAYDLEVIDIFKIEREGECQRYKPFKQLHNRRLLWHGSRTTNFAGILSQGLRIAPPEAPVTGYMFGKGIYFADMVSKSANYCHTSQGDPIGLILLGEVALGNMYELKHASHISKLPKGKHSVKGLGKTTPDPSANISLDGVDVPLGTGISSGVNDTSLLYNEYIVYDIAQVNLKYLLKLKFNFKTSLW

As a reminder, the IC50 is the concentration that gives 50% inhibition. As for `COc1cc(OC)c2c(=O)[nH]c(-c3ccc(OCCOc4ccccc4C(N)=O)cc3)nc2c1` [ADTL-BPI1901], the IC50 was 4600 nM in the data set on PARP1 [1], 400 nM with BRD4 [2] (setting [8]), 15600 ± 1720 nM in the data set on MDA-MB-231 and 6420 ± 1310 nM in the data set with MDA-MB-468.
Take `COc1cc(OC)c2c(=O)[nH]c(-c3cccc(Cc4n[nH]c(=O)c5ccccc45)c3)nc2c1` [BP44]: the IC50 is 197 nM in the data set with PARP1 [1], 238 nM with BRD4 [2] (setting [8]), 6610 ± 580 nM in the data set with MDA-MB-231 and 3010 ± 830 nM in the data set on MDA-MB-468.
Take `Cc1cc(S(=O)(=O)Nc2ccc3[nH]c(=O)c4c(c3c2)CCCC4)ccc1F` [HF1, 4-fluoro-3-methyl-N-(6-oxo-5,6,7,8,9,10-hexahydrophenanthridin-2-yl)benzenesulfonamide]: the IC50 was found to be 94 nM against PARP1 [3]; 3560 ± 951 nM on BRD4 [4]; 3500 nM at BRD4 [4] (value of the text); 11400 nM in the data set on MCF-7 cells; 31900 nM in the data set on MDA-MB-231 cells. Further, the “BRD4 potency relative to HF2” value at BRD4 [4] (more potent than HF2) is recorded as 10 times. In data set [5], the “solubility during activity testing” value is “higher solubility”.
Regarding `Cc1cc(S(=O)(=O)Nc2ccc3[nH]c(=O)c4ccccc4c3c2)ccc1F` [HF2], the IC50 came to 339 ± 86 nM at PARP1 [3] and 32600 ± 6340 nM against BRD4 [4].
In the case of `CN(C)CC(=O)Nc1ccc2[nH]c(=O)c3c(c2c1)CCCC3` [HF3, 2-(dimethylamino)-N-(6-oxo-5,6,7,8,9,10-hexahydrophenanthridin-2-yl)acetamide], the IC50 at PARP1 [3] is 16 nM; against BRD4 [4], 28800 ± 6990 nM; against BRD4 [4] (value of the text), about 28000 nM.
Taken in the same sequence, the figures for `CCc1cc2cc(NC(=O)CN(C)C)ccc2[nH]c1=O` [HF5, 2-(dimethylamino)-N-(3-ethyl-2-oxo-1,2-dihydroquinolin-6-yl)acetamide] were 736 nM, 34300 ± 7900 nM and about 34300 nM.
Take `Cc1noc(C)c1-c1ccc2c(c1)C(c1ccccc1)N(Cc1nc3c(C(N)=O)cccc3[nH]1)C(=O)N2C` (stereo not shown) [III-7]: the IC50 is 49 nM in the data set on PARP1 [1]; 202 nM in the data set on BRD4 [2] (setting [8]); 1340 ± 160 nM with SW1990 cell; 1310 ± 110 nM with CFPAC-1 cell; 1710 ± 210 nM in the data set on Capan-1 cell.
As to `CC[C@@H]1C(=O)N(C)c2cnc(N(C)c3ccc(-c4nc5c(C(N)=O)cccc5[nH]4)cc3OC)nc2N1C1CCCC1` [III-16], the IC50 was 13 nM in the data set with PARP1 [1], 101 nM in the data set with BRD4 [2] (setting [8]) and 980 ± 130 nM with SW1990 cell.
Consider `Cc1sc2c(c1C)C(c1ccc(Cl)cc1)=N[C@@H](CC(=O)OC(C)(C)C)c1nnc(C)n1-2` [JQ1, reference compound], for which the IC50 in the data set on MCF-7 cells was found to be 900 ± 100 nM; in the data set with MDA-MB-231 cells it was 1200 ± 400 nM; with MDA-MB-436 cells, 4700 ± 1900 nM. The BRD4 expression result with BRD4 [6] is “significantly enhances its levels”. The PARP1 expression result with PARP1 [7] was “significant increase”.
With `O=C(c1cc(Cc2n[nH]c(=O)c3ccccc23)ccc1F)N1CCN(C(=O)C2CC2)CC1` [Olaparib, olaparib, reference compound], the IC50 in the data set with MCF-7 cells was found to be 27200 ± 3500 nM; in the data set on MDA-MB-231 cells it was 13900 ± 2600 nM; in the data set with MDA-MB-436 cells, 2200 nM.
The inhibition is the share of the control response that was lost under treatment. Turning to `COc1ccccc1S(=O)(=O)Nc1ccc2c(c1)CN(C)C(=O)N2` [PFI-1, reference compound], on PARP1 [3] (10 μM, read-out: PARP1 inhibition rate), the inhibition at 10 µM turned out to be 10%. Also, the IC50 in the data set with BRD4 [2] is 220 nM.
Consider `CN(C)CC(=O)Nc1ccc2[nH]c(=O)c3ccccc3c2c1` [PJ34, 2-(dimethylamino)-N-(6-oxo-5,6-dihydrophenanthridin-2-yl)acetamide, reference compound], for which the IC50 against BRD4 [4] was 2070 ± 588 nM.
Regarding `COc1cc(OC)c2c(=O)[nH]c(-c3cc(C)c(OCCO)c(C)c3)nc2c1` [RVX-208, apabetalone, reference compound], on PARP1 [3] (at 10 μM), the “activity against PARP1” value is listed as “no activity”.
